Experimental data taken from patent US20050260629A1, “Differential drug sensitivity” (Ludwig Institute for Cancer Research, priority 2004, published 2005).
Entries after “also recorded” stand apart in the source; their conditions may differ.

Legend:
Assay type in all cases: cell-based, Human
MDM2 promoter = assay: MDM2Luciferase stable U2OS cell line
Protocol: (§1) Cells were co-transfected with 1 μg of the plasmid of interest and 4 μg of pCDNA3, which contains the resistance gene against neomycin for 6 hours. They were washed once with PBS and cultured in medium supplemented with neomycin. Twenty four hours later they were split and plated at different dilutions (from 1:50 to 1:200) in medium containing neomycin. The medium was changed every three days for two weeks until colonies formed. Colonies were picked and sub-cultured into a 24-well plate. After proliferation of each colony, cells were characterized either by luciferase assays or by western blotting according to the cell line.
(§2) Twenty four hours after transfection, the cells were lysed in Reporter Lysis buffer supplied by Promega and assayed using the Luciferase assay kit (Promega), measuring luciferase activity with the Autolumat Plus (Berthold technologies). The fold activation of a particular reporter was determined by the activity of the transfected plasmid divided by the activity of vector alone. The fold increase of activity in response to drug treatment was obtained by the activity in the presence of drug divided by the activity of the untreated sample.
(§3) Pig3Luciferase, Pig3-delFLuciferase (similar to the Pig3 promoter but without the p53 binding site), p21Luciferase, MDM2Luciferase reporters were used to generate four cell lines in U2OS cells.

ASPP2 promoter = ASPP2 promoter luciferase stable U2OS cell line
Protocol: as §1, §2
(§4) ASPP might respond to drugs in many ways in cells. To start investigating this, stable cell lines expressing luciferase under the control of the ASPP1 or ASPP2 promoters were created in U2OS cells. For each cell line, two clones were tested with the six drugs used previously. […] At the same time, these cell lines were used to titrate drugs.

ASPP1 promoter = ASPP1 promoter luciferase stable U2OS cell line
Protocol: as §1, §2, §4

[1] = test system: proapoptotic promoter Pig3; assay: Pig3Luciferase reporter transactivation, transient transfection in U2OS cells; conditions: treated 24 hours
Protocol: (§5) Adherent cells were grown to a confluence of 70-80% in fresh medium. Cells were plated 24 hours prior to the transfection procedure. The medium on the dishes was replaced with 3 ml of fresh medium 15-30 minutes before the transfection. 2×HBS buffer (280 mM NaCl, 10 mM KCL, 1.4 mM Na2HPO4.2H2O, 12 mM glucose, 39 mM HEPES, adjusted to a pH 6.9-7.3) was diluted in sterile water to a concentration of 1× in a final volume of 300 μl. The required amount of DNA was added using sterile Gilson tips and mixed thoroughly. To form the precipitate, 12.5 μl of 2.5 M CaCl2 was added to the transfection mix and left at room temperature for 12-15 minutes. Six hours later dishes were washed with medium without serum once before adding 3 ml of fresh medium supplemented with 10% serum until further analysis of cells.
as §2
Some of the drugs commonly used in cancer therapy are known to stimulate p53 transactivation activity. To test their effect on a proapoptotic promoter specifically transactivated by p53, U2OS and MCF7 cells (both wild type p53) were transiently transfected with the proapoptotic reporter Pig3Luciferase and then treated for 24 hours with eight different compounds (FIGS. 1A and 1B).
Si—RNA cloned into pSuper plasmid (Brummelkamp et al., Science. 296(5567):550-3, 2002) was transiently transfected with the Pig3 reporter into U2OS cells treated with doxorubicin or cisplatin (FIG. 3A).

Pig3 promoter = assay: Pig3Luciferase stable U2OS cell line
Protocol: as §1, §2, §3

p21 promoter = assay: p21Luciferase stable U2OS cell line
Protocol: as §1, §2, §3

[2] = test system: proapoptotic promoter Pig3; assay: Pig3Luciferase reporter transactivation, transient transfection in MCF7 cells; conditions: treated 24 hours
Protocol: as §5
as §2, with “sample. […]” for “sample.”

deleted Pig3 promoter = assay: Pig3-delFLuciferase stable U2OS cell line (no p53 binding site)
Protocol: as §1, §2, §3

[3] = drug titration, regardless of the concentration

Structure (SMILES)	ability of p53 to transactivate the Pig3 promoter [1]	MDM2 promoter activity (MDM2 promoter)	ASPP1Luciferase reporter activity (ASPP1 promoter; [3])	Pig3 promoter activity went up by [1] [fold]	p21 promoter activity (p21 promoter)	Pig3-Luciferase activity (Pig3 promoter)	ASPP2 promoter activity (ASPP2 promoter; stable U2OS, clone 4)	ability of p53 to transactivate the Pig3 promoter [2]	also measured
O=c1[nH]cc(F)c(=O)[nH]1 [5-Fluorouracil]	able to induce such induction								effect on the MDM2 promoter (MDM2 promoter): 7 fold; ASPP2 promoter activation (ASPP2 promoter; clone 4, titration, at 40 μg/ml): 3 fold; concentration inducing the maximum ASPP1Luciferase reporter activity (ASPP1 promoter; drug titration): 40 µg/mL; ASPP1 promoter activity (ASPP1 promoter; stable U2OS, two clones, after 24 hours, listed as 5-fluorouracil): activates; Pig3 promoter activity induced by (Pig3 promoter): three
N.N.[Cl][Pt][Cl] [cisplatin]	did not have the same efficiency as doxorubicin	did not affect	little effect	2.9	did not affect	did not affect			ASPP2 promoter activity (ASPP2 promoter; clone 4, drug titration): no effect
COc1cccc2c1C(=O)c1c(O)c3c(c(O)c1C2=O)C[C@@](O)(C(C)=O)C[C@@H]3O[C@H]1C[C@H](N)[C@H](O)[C@H](C)O1 [daunorubicin]	strongly increased	not p21 or MDM2	little effect	34.7	not p21 or MDM2	specifically stimulated	stimulated	strongly increased	ASPP2 promoter activity increase (ASPP2 promoter; clone 4, titration, at 150 ng/ml): 4 fold
COc1cccc2c1C(=O)c1c(O)c3c(c(O)c1C2=O)C[C@@](O)(C(=O)CO)C[C@@H]3O[C@H]1C[C@H](N)[C@H](O)[C@H](C)O1 [doxorubicin]	strongly increased	not p21 or MDM2			not p21 or MDM2	respond; also recorded: specifically stimulated	stimulated	strongly increased	ASPP2 promoter activity (ASPP2 promoter; FIGS. 4A and 4B (both clones)): activates; ASPP2 promoter activity, increase over the control (ASPP2 promoter; clone 4, titration, at 2 μM (highest effect)): 10 fold; ASPP2 promoter activity (ASPP2 promoter; stable U2OS, clone 3): had an effect; ASPP1Luciferase reporter activity (ASPP1 promoter; drug titration, at 2 μM): 2 fold; toxicity in ASPP1Luciferase cells (ASPP1 promoter; drug titration, concentration reached 3 μM): toxic; activity of the deleted Pig3 promoter (deleted Pig3 promoter): did not affect
COc1cc([C@@H]2c3cc4c(cc3[C@@H](O[C@@H]3O[C@@H]5CO[C@@H](C)O[C@H]5[C@H](O)[C@H]3O)[C@H]3COC(=O)[C@H]23)OCO4)cc(OC)c1O [etoposide]		did not affect			did not affect	did not affect			
CO[C@@]12[C@H](COC(N)=O)C3=C(C(=O)C(C)=C(N)C3=O)N1C[C@@H]1N[C@@H]12 [mitomycin C]		did not affect			did not affect	did not affect			
